# Experimental data reported in patent US20070004689A1, “Antiangiogenic agents” (priority 2004, published 2007).
# Where two headings read alike, the source gives them in different places.
# Legend:
# [1] = tested on: Human umbilical vein endothelial cells (HUVEC); assay: BrdU proliferation assay, HUVEC (anti-angiogenic activity); format: cell-based; conditions: BrdU DNA synthesis, 48 h exposure, read-out: HUVEC (IC50 μM)
# Text: Cell Culture: Human umbilical vein endothelial cells (HUVEC) were obtained from Clonetics (San Diego, Calif.), MCF7 cells were the kind gift of Dr. Dorraya El Ashry (University of Michigan), MDA-MB-231 a human breast carcinoma, PC3 a human prostate carcinoma, and U87-MG a human glioma, cell lines were obtained from ATCC. HUVEC cultures were maintained for up to 5 passages in EGM containing bovine brain extract (Clonetics) and 1× antibiotic-antimycotic (BioWhittaker, Walkersville, Md.). MDA-MB-231, PC3, U87-MG and MCF-7 cells were maintained in DMEM/F12 (1:1) containing 10% (v/v) fetal bovine serum (Hyclone Laboratories, Logan, Utah) and 1× antibiotic-antimycotic. MCF7 cells were used between passage 60 and passage 100.
# Proliferation Assays: Proliferation was measured by cell counting using a Coulter Zl cell counter (Coulter Corporation, Hialeah, Fla.) or by evaluation of DNA synthesis. Each condition was done in triplicate and experiments were repeated at least twice. To determine estrogenicity of the analogs, MCF7 estrogen-dependent proliferation assays were performed. The cells were seeded in complete media at 10,000 cells/well in a 24 well plate after allowing the cells to adhere overnight and the seeding density was determined by cell counts. Cells were washed with PBS (37° C.) and starved by placing them in IMEM-phenol red free media containing 2% charcoal-dextran fetal bovine-stripped serum (Valley Biomedical, Winchester, Va.) and 1× antibiotic-antimycotic. After 3 days of starvation, cells were treated with or without increasing concentrations of compounds, replacing the media every 2-3 days and counted after 7 days of treatment. In order to ensure that only the added test compounds stimulated growth, experiments were performed only with cell cultures that duplicated less than once during the starvation period. Values are expressed as MCF7 stimulation index (SI) relative to 2ME2 (defined as 1.00). A value less than 1.00 indicates reduced estrogenicity. Estradiol is used as a positive control.
# To determine anti-tumor and anti-angiogenic activities of the analogs, proliferation assays were performed by evaluating detection of DNA synthesis by use of the 5-bromo-2′-deoxyuridine (BrdU) cell proliferation colorimetric ELISA kit from Roche (Indianapolis, Ind.) according to the manufacturer's instructions. For BrdU assays, the cells were seeded at 1,000 cells/well (MDA-MB-231, anti-tumor activity) or 3,000 cells/well (HUVEC, anti-angiogenic activity) in a 96 well plate, allowed to attach overnight and then exposed to the compound for 48 h. IC50 value is the concentration at which cell proliferation is inhibited by 50%.
# Antiproliferative activity of the NCEs were assessed in tumor cell lines (MDA-MB-231 a breast carcinoma, PC3 a prostate carcinoma and U87-MG a glioma) and endothelial cells (HUVEC).
# [2] = Rat pharmacokinetics, cassette dosing, oral; format: in vivo; conditions: oral 5 mg/kg, plasma
# Protocol: Pharmokinetics (PK): PO Cmax is the maximal concentration of drug achieved after oral administration in rats and AUC is the area under the curve. These parameters are an indication of oral bioavailability. PK parameters were determined using a cassette-dosing approach. A group of new chemical entities (NCEs) (usually 3-6 molecules) was dissolved in DMSO or ethanol and diluted with a solution of a dextrin polymer to the final working concentration (usually 0.2-2 mg/mL). Groups of three rats with in-dwelling catheters were dosed either orally (5 mg/kg) or i.v. (1 mg/kg) with the cassette of NCEs. Blood was collected at nine time points from 2 minutes to 24 hours. Plasma was separated and aliquots of the replicate samples were pooled for analysis. Plasma proteins were precipitated by addition of organic solvent (most often methanol or acetonitrile). For some analogs, an acid modifier was added to the precipitation mixture to enhance recovery. Precipitated proteins were removed by centrifugation and the supernatant was injected onto a C18 reversed phase column attached to an LC-MS-MS mass spectrometer. Analytes were partly resolved by a rapid (5 minute) gradient of organic modifier. Analytes were measured as either positive or negative ions, depending on ionization characteristics, in the SRM (or MS-MS) mode. Quantification was carried out by correlation of peak heights or areas for each analyte to a set of concentration standards of the same analytes diluted into blank plasma. Concentration vs. time data was analyzed by WinNonLin.
# [3] = tested on: Rat hepatocyte suspensions; assay: Hepatocyte incubations, rat; format: in vitro ADME; conditions: rat hepatocytes, NR = no reaction; for Hepatocyte Rat 60/120′ (1 uM): 60′ / Hepatocyte Rat 60/120′ (5 uM): 60′: 60 minutes; for Hepatocyte Rat 60/120′ (1 uM): 60′ / Hepatocyte Rat 60/120′ (1 uM): 120′: in % (unit assumed); for Hepatocyte Rat 60/120′ (5 uM): 60′ / Hepatocyte Rat 60/120′ (5 uM): 120′: unit assumed; for Hepatocyte Rat 60/120′ (5 uM): 120′ / Hepatocyte Rat 60/120′ (1 uM): 120′: 120 minutes
# Protocol: Hepatocyte Incubations: An in vitro measure of metabolism using cells from rat and human liver. Rat and human hepatocyte suspensions (10^6 cells per mL of serum-free (H)CL15 culture medium) were incubated with 2 concentrations (1 and 5 μM) of each of the compounds. Stock solutions were prepared in DMSO, and were further diluted in culture medium to the final test concentrations. 7-Ethoxycoumarin (7-EC) were included as a positive control substrate for P450. A 0.1 M 7-EC stock solution was prepared in DMSO, and the final assay concentration was 100 μM. The reactions were initiated by the addition of the substrates, incubated at 37° C., and terminated after 0, 60 and 120 minutes by addition of acetonitrile. The positive 7-EC control reactions were stopped with perchloric acid or ZnSO4 and BaOH after 60-minutes of incubation. The reaction mixture was centrifuged to remove the cell debris, and the supernatant was used for subsequent analysis by HPLC/LC-MS. If necessary, the supernatants were flash frozen in liquid N2 and stored at −70° C. until further analysis. HPLC was used to analyze product formation from 7-EC. Analyses to determine the concentration of the test compounds were carried out using reverse phase HPLC with tandem mass spectrometric detection (LC-MS/MS). Samples were analyzed to measure the disappearance of parent compound over time. The rate of metabolism was estimated by fitting a curve to the data for each concentration against time using GraphPad Prism Version 3.02 software.
Hepatocyte Rat 60/120′ (5 uM): 120′ [3],Cmax [2],Rat PO AUC (nM) [2],Hepatocyte Rat 60/120′ (1 uM): 120′ [3],SMILES,"IC50 ([1]; Homo sapiens, HUVEC)",AUC ([2]; rat),Cmax ([2]; rat),Hepatocyte Rat 60/120′ (1 uM): 60′ [3],Hepatocyte Rat 60/120′ (5 uM): 60′ [3],IC50 [1]
83%,130 nM,624 nM·h,85,"COc1cc2c(cc1C(N)=O)CC[C@@H]1[C@@H]2CC[C@]2(C)CCC[C@@H]12 [Compound 57, (2-Methoxyestra-1,3,5(10)-trien-3-yl)-3-carboxamide]",–,–,–,91,95%,0.96 ± 0.26 µM
87%,127 nM,961 nM·h,67,"COc1cc2c(cc1C(N)=O)CC[C@@H]1[C@@H]2CC[C@]2(C)C=CC[C@@H]12 [Compound 63, 3-carboxamide-2-methoxy-1,3,5(10)16-estratetraene]",–,–,–,77,78%,0.13 ± 0.05 µM

SMILES,Hepatocyte Rat 60/120′ (5 uM): 120′ [3],Cmax [2],Rat PO AUC (nM) [2],Hepatocyte Rat 60/120′ (1 uM): 120′ [3],"IC50 ([1]; Homo sapiens, HUVEC)",AUC ([2]; rat),Cmax ([2]; rat),Hepatocyte Rat 60/120′ (1 uM): 60′ [3],Hepatocyte Rat 60/120′ (5 uM): 60′ [3],IC50 [1]
"COc1cc2c(cc1C(N)=O)CC[C@@H]1[C@@H]2CC[C@]2(C)C(=O)CC[C@@H]12 [Compound 54, 2-methoxy-17-oxoestra-1,3,5(10)-triene-3-carboxamide]",101%,–,–,–,5.46 ± 1.57 µM,0.185 µM·h,47 nM,78,95%,–
"C=C1CC[C@H]2[C@@H]3CCc4cc(C(N)=O)c(OC)cc4[C@H]3CC[C@]12C [Compound 60, 2-Methoxy-17-methyleneestra-1,3,5(10)-triene-3-carboxamide]",–,–,–,87,0.12 ± 0.06 µM,1.4 µM·h,185 nM,99,87%,–
